From patent US20180318263A1 (The Regents of the University of Colorado, a body corporate, priority 2016, published 2018)
“Also recorded” adds a separate entry of the source.

Legend:
[1] = tested on: LNCaP-Enza-Res cells; experiment: growth of enzalutamide-resistant LNCaP cells (MTS); type: cell-based, human; settings: for growth of enzalutamide-resistant LNCaP cells versus parental: single fat oxidation inhibitor, 48 hours
Excerpt: FIG. 16 is a set of four graphs split over two pages. […] Data is normalized to the vehicle treatment (no drugs). […] Data is normalized to the vehicle treatment (no drugs). […] Data is normalized to the vehicle treatment (no drugs). […] Data is normalized to the vehicle treatment (no drugs).
FIG. 17 is a pair of graphs showing the effects of treatment on the indicated cells. […] Data is normalized to the vehicle treatment (no drugs). […] Both concentrations are in microMolar (μM).
(§1) Parental LNCaP and VCaP cells treated with vehicle were used as their corresponding controls.

[2] = tested on: TRAMPC1 cells; experiment: mouse TRAMPC1 cell growth / clonogenic assay; type: cell-based; settings: for sensitivity of mouse prostate cancer cells: FIG. 12; for sensitivity to each drug treatment alone: TRAMPC1, enzalutamide (5 μM)
Excerpt: FIG. 10 is an image and a graph showing mouse TRAMPC1 cell growth assay. […] Representative crystal violet stains are shown above graph.
These cells are important model because they can be placed in syngeneic C57B1 mice with a complete immune system.
This cell line from mouse PCa allows the evaluation of treatments in vivo, using immune-competent […] mice, which are syngenic with the TRAMPC1 cells.

[3] = tested on: tumors of human cells resistant to enzalutamide; experiment: enzalutamide-resistant human tumors in nude mice treated with ranolazine; type: in vivo; settings: injections started on day 5
[4] = tested on: VCaP-Enza-Res cells; experiment: growth of enzalutamide-resistant VCaP cells; type: cell-based, human; settings: single fat oxidation inhibitor, 48 hours
Excerpt: as §1

[5] = tested on: enzalutamide-resistant PCa cells; experiment: colony formation of enzalutamide-resistant versus parental PCa cells; type: cell-based
Excerpt: Colony formation was examined after 2 weeks by crystal violet stain and analyzed with image J.

[6] = tested on: LNCaP CPT1A-KD clones; experiment: growth of LNCaP CPT1A-KD clones with enzalutamide; type: cell-based, human; settings: enzalutamide (MDV3100) versus control clone
Experimental: (C) Relative growth of LNCaP-KD clones compared to control (NTshRNA) with Enza treatment. *p<0.001, compared to control treatment. ap<0.01 compared to control clone. (NTshRNA—left; CPT1Ash1—center; and CPT1 Ash2 at each timepoint for FIGS. 6A and 6B.)
Data is normalized to the vehicle (0 μM, no drug) treatment. Data represents mean±SD.
Etomoxir targets CPT1. […] It is possible that the decrease in AR observed with etomoxir is due to off-targets effects of the drug (besides CPT1), and/or the cells may need to be studied at earlier time points when apoptotic and ER stress mechanisms have not been set in motion.

[7] = tested on: BPH-1 and WPMY-1 cells; experiment: viability of benign prostate cells with etomoxir; type: cell-based; settings: etomoxir 75 μM
Excerpt: (§2) (E) Stain of xenografts slices with phospho-4EBP1 antibody. (F) Western blot of LNCaP cells treated with vehicle (“V”) or etomoxir (“E”), C-Casp3=cleaved-caspase 3. (G) Putative diagram of mTOR signaling pathway.

[8] = tested on: PCa cell lines; experiment: growth/viability of PCa cell lines with etomoxir; type: cell-based, human; settings: etomoxir (75 μM in FIG. 2D), p<0.01
Excerpt: as §2

[9] = tested on: PCa cells; experiment: 14C-lipid oxidation in PCa cells; type: cell-based
[10] = tested on: LNCaP cells; experiment: ER stress markers in etomoxir-treated LNCaP cells; type: cell-based, human
Excerpt: (C) Phosphorylation of the α-subunit of the translation initiation factor eIF2 (p-eIF2a) and expression of LC3 cleavage marker of autophagy. (D) Agarose gel showing the spliced (activated, 447 bp) XBP1 factor that regulates the response to ER stress.

[11] = tested on: VCaP tumor; experiment: VCaP xenograft tumor growth in mice treated with etomoxir; type: in vivo; settings: VCaP xenografts, etomoxir 40 mg/kg/day for 21 days, p<0.05
Excerpt: as §2

[12] = tested on: primary PCa cells; experiment: primary PCa cells derived from prostatectomies treated with etomoxir; type: cell-based, human; settings: data not shown
Excerpt: The effects of etomoxir in primary PCa cells derived from prostatectomies carried out at University of Colorado hospital were examined.

[13] = tested on: androgen receptor (AR); experiment: AR gene expression and Western blot in LNCaP cells; type: cell-based, human; settings: etomoxir 48 hours, p<0.05
Experimental: (A) Relative AR gene expression after vehicle (“V”) or etomoxir (“E”) treatment in LNCaP cells. ARfl=full length AR; ARv7=AR variant 7; AR total=all AR isoforms; PSA=prostate specific antigen; NKX3.1=Homeodomain-containing transcription factor regulated by androgens. […] (B) Western blot of full length AR and ARV7 variant in LNCaP cells treated with etomoxir for 48 hours.

[14] = tested on: mTOR; experiment: ceramides and mTOR signaling after etomoxir; type: cell-based
Excerpt: as §2

COc1ccccc1OCC(O)CN1CCN(CC(=O)Nc2c(C)cccc2C)CC1 (stereo not shown) [ranolazine]
growth of enzalutamide-resistant LNCaP cells versus parental [1]: more sensitive to ranolazine than their corresponding parental controls | growth of enzalutamide-resistant LNCaP cells versus parental ([1]; listed as Ranolazine): inhibits growth | sensitivity of mouse prostate cancer cells [2]: sensitive | sensitivity to each drug treatment alone [2]: not very sensitive | sensitivity of enzalutamide-resistant tumors [3]: show signs of sensitivity | growth of enzalutamide-resistant VCaP cells versus parental [4]: more sensitive to ranolazine than their corresponding parental controls | growth of enzalutamide-resistant VCaP cells versus parental ([4]; listed as Ranolazine): inhibits growth

C1CCC(C(CC2CCCCN2)C2CCCCC2)CC1 (stereo not shown) [perhexiline]
sensitivity of mouse prostate cancer cells [2]: sensitive

CNC(=O)c1ccc(N2C(=S)N(c3ccc(C#N)c(C(F)(F)F)c3)C(=O)C2(C)C)cc1F [enzalutamide]
growth in the presence of enzalutamide ([1]; LNCaP-enzalutamide resistant cells versus parental, p<0.001): can grow in the presence of enzalutamide | growth in the presence of enzalutamide compared to parental controls [5]: grow better in the presence of enzalutamide | cell growth of CPT1A-deficient LNCaP clones [6]: more sensitive to enzalutamide treatment; also recorded: synergistic effect on cell growth | sensitivity to each drug treatment alone [2]: not very sensitive

CCOC(=O)[C@@]1(CCCCCCOc2ccc(Cl)cc2)CO1 [etomoxir]
growth effect in benign cells [7]: not seen | growth / viability of PCa cells [8]: decrease their growth and died | growth / viability of PCa cells ([8]; listed as Etomoxir): decreases the viability | 14C-lipid oxidation [9]: able to block 14C-lipid oxidation | autophagy markers (LC3) [10]: increase in autophagy markers (LC3) | markers of ER stress ([10]; ATF4, GADD34, GRP78, CHOP, p<0.001): increase in markers of ER stress | tumor growth [11]: Decreased VCaP tumor growth; also recorded: also observed | glucose uptake [12]: momentary increase in glucose uptake | viability compared to matched non-cancerous cells [12]: concomitant decrease in viability | expression of androgen receptor (AR) and its variant forms [13]: significant decrease | mTOR and downstream effectors S6K and 4EBP-1 ([14]; etomoxir treatment): decreased mTOR and its downstream effectors S6K and 4EBP-1 | palmitate-containing ceramides ([14]; etomoxir treatment (not shown)): increased palmitate-containing ceramides | sensitivity of mouse prostate cancer cells [2]: sensitive
